US9862711B2, “Pyrazine derivatives as phosphatidylinositol 3-kinase inhibitors” (NOVARTIS AG, priority 2014, dated 2018)

Tested on: IL-8-induced neutrophil shape change in human whole blood
Test: Whole blood neutrophil shape change assay (Assay L)
Assay type: cell-based
Conditions: 2 nM IL-8, neutrophil shape change by flow cytometry, read-out: Assay L WBSC IC50
Protocol: Whole Blood Neutrophil Shape Change Assay (L)
A flow cytometry based method used to measure the inhibition of IL-8 (interleukin-8)-induced neutrophil shape change in human whole blood.
IL-8 was made up to 2 μM stocks in 0.1% bovine serum albumin/PBS and stored at −80° C. On the day IL-8 was diluted in PBS (phosphate buffered saline) 10 minutes before use. IL-8 was used at final concentration of 2 nM and a concentration range from […] to 200 nM for the donor dose response curve.
Assay fixative solution was prepared fresh each day from 10× concentrated CellFIX™ solution diluted 1:10 in sterile distilled water and then 1:4 with PBS. Assay fixative solution was kept on ice prior to use.
A 10× lysis buffer was prepared in advance by dissolving 20.75 g […] and 2.5 g KHCO3 in 250 ml sterile H2O. This 10× lysis buffer was filtered under sterile conditions and stored for up to two weeks at 4° C. On the day a 1× lysis solution was prepared with sterile distilled H2O and kept on ice prior to use.
The test compounds were prepared as 10 mM stock solutions in 100% DMSO and were stored at 4° C. Once in use for an assay 10 mM stock compounds were thawed and stored at RT protected from light. Compound dilutions were prepared fresh on the day. The first series of dilutions in 100% DMSO were done first thing in the morning. Only once blood had been collected and arrived in laboratory was the next set of dilutions into PBS carried out (1:10 PBS, 10% DMSO). This limited the exposure of diluted compound to plastic and made sure the exposure timing was consistent between assays. Compounds were added to the deep 96 well plates at 10× the final desired concentration (with addition of blood final [DMSO]=1%).
Table 3 illustrates the compound dilution series used in human whole blood neutrophil shape change assay.
On the day of running the assay, assay fixative buffer and 1× lysis solutions were prepared and stored on ice. Compound dilutions in 100% DMSO were prepared as described previously. Human whole blood was collected in K2 EDTA Vacutainers. Once blood was in the laboratory, compound dilutions into PBS were carried out as described previously and depicted in Table 1. 10 μl of 10× final compound concentration was added to appropriate wells of a deep 96-well plate except controls where 10 μl of 10% DMSO was added in place of compound, as outlined in the dilution series in Table 1. The outer wells of the deep well assay plate were filled with 1200 μl of sterile distilled H2O in an effort to limit edge effects (rows A1-H1, A1-A12, A12-H12). An IL-8 dose response was determined for each blood donor examined, to monitor the donor response to IL-8. At this step in assay preparation for the IL-8 dose response samples 10 μl of PBS was added to designated wells. In addition the assay window without DMSO was also assessed each day. For such samples at this step in assay preparation 10 μl of PBS was added in the place of 10% DMSO.
80 μl of whole blood was added to compound/10% DMSO/PBS and mixed once gently upon addition. Lids were placed on the 96 well plates and samples were incubated for 15 minutes at 37° C. in a water-bath.
Following the compound pre-incubation 10× final IL-8 was added to appropriate wells (10 μl of 20 nM working stock IL-8, final IL-8 concentration in blood=2 nM) and 10 μl of PBS was added to the un-stimulated controls. 10× final dose response range IL-8 was also added to designated wells (final concentration range on assay plate was 200 nM to 0.0005 nM, 1:5 serial dilution in PBS). The IL-8 and PBS were added to appropriate wells across all assay plates in the same sequence as the blood to compound addition. Once added to all assay plates, samples were mixed quickly once to ensure even distribution of IL-8. Samples were incubated for 5 minutes at 37° C. in a water-bath. Following the incubation sample plates were transferred to ice where 250 μl of chilled Assay Fixative Buffer was added promptly to all wells. […]

Compound | IC50 [nM]
Cc1ncc(-c2cncc(-c3cc(S(=O)(=O)NCCCO)ccc3C)n2)s1 [Example 1, N-(3-Hydroxy-propyl)-4-methyl-3-[6-(2-methyl-thiazol-5-yl)-pyrazin-2-yl]-benzenesulfonamide] | 1330
Cc1ccc(S(=O)(=O)NCC(C)(C)O)cc1-c1cncc(-c2cn(C)nc2C)n1 [Example 2, 3-[6-(1,3-Dimethyl-1H-pyrazol-4-yl)-pyrazin-2-yl]-N-(2-hydroxy-2-methyl-propyl)-4-methyl-benzenesulfonamide] | 266
Cc1ccc(S(=O)(=O)NCCC(C)(C)O)cc1-c1cncc(-c2cn(C)nc2C)n1 [Example 3, 3-[6-(1,3-Dimethyl-1H-pyrazol-4-yl)-pyrazin-2-yl]-N-(3-hydroxy-3-methyl-butyl)-4-methyl-benzenesulfonamide] | 1080
Cc1ccc(S(=O)(=O)NCC2(C)COC2)cc1-c1cncc(-c2cn(C)nc2C)n1 [Example 4, Trans 3-[6-(1,3-Dimethyl-1H-pyrazol-4-yl)-pyrazin-2-yl]-4-methyl-N-(3-methyl-oxetan-3-ylmethyl)-benzenesulfonamide] | 548
Cc1ncc(-c2cncc(-c3cc(S(=O)(=O)N[C@H]4CC[C@H](O)CC4)ccc3C)n2)s1 [Example 5, Trans N-(4-Hydroxycyclohexyl)-4-methyl-3-(6-(2-methylthiazol-5-yl)pyrazin-2-yl)benzenesulfonamide] | 179
Cc1ccc(S(=O)(=O)NCC(C)(C)CO)cc1-c1cncc(-c2cn(C)nc2C)n1 [Example 8, 3-[6-(1,3-Dimethyl-1H-pyrazol-4-yl)-pyrazin-2-yl]-N-(3-hydroxy-2,2-dimethyl-propyl)-4-methyl-benzenesulfonamide] | 625
Cc1ccc(S(=O)(=O)NCCC(C)(C)O)cc1-c1cncc(-c2cnn(CCN3CCOCC3)c2)n1 [Example 9, N-(3-Hydroxy-3-methyl-butyl)-4-methyl-3-{6-[1-(2-morpholin-4-yl-ethyl)-1H-pyrazol-4-yl]-pyrazin-2-yl}-benzenesulfonamide] | 598
Cc1ccc(S(=O)(=O)NCCC(C)(C)O)cc1-c1cncc(-c2cn(CCN3CCOCC3)nc2C)n1 [Example 10, N-(3-Hydroxy-3-methyl-butyl)-4-methyl-3-{6-[3-methyl-1-(2-morpholin-4-yl-ethyl)-1H-pyrazol-4-yl]-pyrazin-2-yl}-benzenesulfonamide] | 663
Cc1ccc(S(=O)(=O)N[C@H]2CC[C@H](O)CC2)cc1-c1cncc(-c2cccnc2)n1 [Example 11, Trans N-(4-Hydroxy-cyclohexyl)-4-methyl-3-(6-pyridin-3-yl-pyrazin-2-yl)-benzenesulfonamide] | 752
